In patent publication US11325899B2, “Benzofurane and benzothiophene derivatives as PGE2 receptor modulators” (IDORSIA PHARMACEUTICALS LTD, priority 2017, dated 2022):

Tests used:
PTGER4 (EP4) = biological target: T1, PTGER4 (EP4) (Homo sapiens, UniProt P35408); experiment: hEP4 b-arrestin assay (PathHunter HEK 293 PTGER4 b-arrestin cells); format: cell-based; conditions: antagonistic activity, beta-arrestin assay; read-out: hEP4 b-arr IC50
T1 construct: host or cells: HEK 293 (PathHunter PTGER4 b-arrestin cell line)
In short: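 PathHunter HEK 293 cells expressing ProLink-tagged human EP4 and EA-β-arrestin 2, seeded 24 h before. Compounds (10 μM–2 nM or 1 μM–0.2 nM) preincubated 15 min at 37 °C, then 20 nM PGE2 (EC80) for 120 min at 37 °C. β-gal complementation luminescence read; IC50 from duplicate dose-response curves versus DMSO control.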

EP4 receptor = biological target: T2, EP4 receptor (Homo sapiens, UniProt P35408); experiment: hEP4 cAMP assay (BT549 breast cancer cells, HTRF cAMP, PGE2 stimulation); format: cell-based; conditions: antagonistic activity, PGE2 6 nM (EC80)
T2 construct: BT549 breast cancer cells, express high endogenous EP4 levels and very low EP2 levels; host or cells: BT549 breast cancer cells
Protocol: The antagonistic activities of the compounds of formula (I) on the EP2 and EP4 receptors are also determined in accordance with the following experimental method.
Human tumor cell lines expressing endogenously either EP4 or EP2 are used and cAMP accumulation in cells upon PGE2 stimulation is monitored. SF295 glioblastoma cells express high endogenous EP2 and no EP4, whereas BT549 breast cancer cells, express high endogenous EP4 levels and very low EP2 levels.
As a detection method for cAMP the HTRF (homogeneous time resolved fluorescence) Cisbio kit (HTRF cAMP dynamic 2 kit 20′000 tests Cisbio Cat. #62AM4PEC) was used, which is based on a competitive immunoassay using a Cryptate-labeled anti-cAMP antibody and d2-labeled cAMP. Native cAMP produced by cells or unlabeled cAMP (for the standard curve) compete with exogenously added d2-labeled cAMP (acceptor) for binding to monoclonal anti-cAMP-Eu3+ Cryptate (donor). A FRET signal (Fluorescence Resonance Energy Transfer) is obtained only if the labeled anti-cAMP antibody binds the d2 labelled cAMP, thus the specific signal (i.e. energy transfer) is inversely proportional to the concentration of cAMP in the standard or sample.
The BT549 cells (NCI/No. 0507282) are detached from culture dishes with a cell dissociation buffer (Invitrogen, 13151-014), and collected in growing medium (GM: RPMI1640 (Invitrogen 21875)/10% FCS, 1% Penicilin/streptomycin). Cells are counted washed and resuspended in assay buffer (AB; HBSS, 20 mM HEPES, 0.2% BSA; 2 mM IBMX). 4′000 cells in 5 μl of AB are seeded per well of a small volume 384 well plate (black with flat bottom, Greiner 784076).
Stock solutions of test compounds are made at a concentration of 10 mM in DMSO, and serially diluted in DMSO to concentrations required for inhibition dose response curves (tested concentration range 30 μM-0.4 nM; 30 μM-0.015 nM or 1 uM-0.01 nM).
PGE2 (Cayman 14010, stock solution: 6 μM in DMSO) is used as agonist at 6 nM final concentration, corresponding to EC80.
Two point five microliters of diluted compounds are transferred into the assay plate. Plate is pre-incubated 45 minutes at room temperature. Subsequently, 2.5 microliters of PGE2 (final conc. 6 nM) are transferred into the assay plate. Plate is incubated 30 minutes at room temperature. Five μl of each donor (anti-cAMP cryptate) and acceptor (cAMP-d2) are added and the plate is incubated another hour at room temperature in the dark and then read using a BMG LABTECH PHERAstar reader (Excitation:337 nm, Emission:620 and 665 nm).
The obtained Delta F(fluorescence) values (665 nm/620 nM) are converted into % cAMP values using the measurements of the cAMP calibrator provided in the kit. For each compound concentration the percentage of cAMP compared to DMSO control value as average±STDEV (each concentration is measured in duplicate) is calculated.
IC50 values and curves are generated with XLfit software (IDBS) using Dose-Response One Site model 203. When compounds were measured multiple times, mean values are given.

T1 sequence (P35408 whole entry): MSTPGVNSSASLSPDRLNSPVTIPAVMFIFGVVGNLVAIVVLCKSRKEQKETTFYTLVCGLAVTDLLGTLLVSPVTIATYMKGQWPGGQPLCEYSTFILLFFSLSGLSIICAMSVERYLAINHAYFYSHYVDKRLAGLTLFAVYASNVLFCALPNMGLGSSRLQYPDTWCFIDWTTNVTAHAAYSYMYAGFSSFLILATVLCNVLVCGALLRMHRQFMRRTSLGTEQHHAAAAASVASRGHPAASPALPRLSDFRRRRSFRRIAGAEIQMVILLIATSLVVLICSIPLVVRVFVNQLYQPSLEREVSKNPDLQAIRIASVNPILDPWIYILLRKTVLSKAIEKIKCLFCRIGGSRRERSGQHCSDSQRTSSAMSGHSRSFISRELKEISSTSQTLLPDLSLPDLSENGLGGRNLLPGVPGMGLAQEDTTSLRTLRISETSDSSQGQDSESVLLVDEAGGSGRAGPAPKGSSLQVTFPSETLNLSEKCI
T2 sequence (P35408 whole entry): as above

Row | IC50 (PTGER4 (EP4)) | IC50 (EP4 receptor) | Structure (SMILES)
1 | 47 nM | 108 nM | CCOc1cc(-c2cc(NCCc3c(C)sc4c(C)cc(F)cc34)ncn2)ccc1-c1noc(=O)[nH]1 [Example 155, 3-(2-Ethoxy-4-{6-[2-(5-fluoro-2,7-dimethyl-benzo[b]thiophen-3-yl)-ethylamino]-pyrimidin-4-yl}-phenyl)-[1,2,4]oxadiazol-5(4H)-one [tautomeric form: 3-(2-ethoxy-4-(6-((2-(5-fluoro-2,7-dimethylbenzo[b]thiophen-3-yl)ethyl)amino)pyrimidin-4-yl)phenyl)-[1,2,4]oxadiazol-5-ol]]
2 | 673 nM | 549 nM | Cc1cc(-c2cc(NCCc3c(C)oc4ccccc34)ncn2)sc1C(=O)O [Example 6, 3-Methyl-5-{6-[2-(2-methyl-benzofuran-3-yl)-ethylamino]-pyrimidin-4-yl}-thiophene-2-carboxylic acid]
3 | 665 nM | 450 nM | CCOc1cc(-c2cc(NCCc3c(C)sc4c(C)c(F)ccc34)ncn2)ccc1CC(=O)O [Example 112, (2-Ethoxy-4-{6-[2-(6-fluoro-2,7-dimethyl-benzo[b]thiophen-3-yl)-ethylamino]-pyrimidin-4-yl}-phenyl)-acetic acid]
4 | 337 nM | 581 nM | Cc1sc2c(C)cc(F)cc2c1CCNc1cc(-c2ccc(C(=O)O)c(OC3CCCC3)c2)ncn1 [Example 152, 2-Cyclopentyloxy-4-{6-[2-(5-fluoro-2,7-dimethyl-benzo[b]thiophen-3-yl)-ethylamino]-pyrimidin-4-yl}-benzoic acid]
5 | 92 nM | 121 nM | CCOc1cc(-c2cc(NCCc3c(C)sc4c(C)cc(F)cc34)ncn2)ccc1C(=O)C(=O)O [Example 189, (2-Ethoxy-4-{6-[2-(5-fluoro-2,7-dimethyl-benzo[b]thiophen-3-yl)-ethylamino]-pyrimidin-4-yl}-phenyl)-oxo-acetic acid]
6 | 164 nM | 378 nM | Cc1sc2c(C)cc(F)cc2c1CCNc1cc(-c2ccc(CC(=O)O)c(CC(C)C)c2)ncn1 [Example 182, (4-{6-[2-(5-Fluoro-2,7-dimethyl-benzo[b]thiophen-3-yl)-ethylamino]-pyrimidin-4-yl}-2-isobutyl-phenyl)-acetic acid]
7 | 1410 nM | 795 nM | Cc1oc2ccccc2c1CCNc1cc(-c2ccc(C(=O)O)c(SC3CCC3)c2)ncn1 [Example 129, 2-Cyclobutylsulfanyl-4-{6-[2-(2-methyl-benzofuran-3-yl)-ethylamino]-pyrimidin-4-yl}-benzoic acid]
8 | 505 nM | 482 nM | CCCOc1cc(-c2cc(NCCc3c(C)sc4c(OC)ccc(Cl)c34)ncn2)ccc1C(=O)O [Example 101, 4-{6-[2-(4-Chloro-7-methoxy-2-methyl-benzo[b]thiophen-3-yl)-ethylamino]-pyrimidin-4-yl}-2-propoxy-benzoic acid]
9 | 193 nM | 980 nM | Cc1sc2c(C)cccc2c1CCNc1cc(-c2ccc(C(=O)O)c(SC3CCC3)c2)ncn1 [Example 130, 2-Cyclobutylsulfanyl-4-{6-[2-(2,7-dimethyl-benzo[b]thiophen-3-yl)-ethylamino]-pyrimidin-4-yl}-benzoic acid]
10 | 290 nM | 123 nM | CCOc1cc(-c2cc(NCCc3c(C)oc4c(Cl)cccc34)ncn2)ccc1OCC(=O)O [Example 120, (4-{6-[2-(7-Chloro-2-methyl-benzofuran-3-yl)-ethylamino]-pyrimidin-4-yl}-2-ethoxy-phenoxy)-acetic acid]
11 | 16 nM | 42 nM | CCOc1cc(-c2cc(NCCc3c(C)sc4c(C)cc(F)cc34)ncn2)sc1/C=C/C(=O)O [Example 96, (E)-3-(3-Ethoxy-5-{6-[2-(5-fluoro-2,7-dimethyl-benzo[b]thiophen-3-yl)-ethylamino]-pyrimidin-4-yl}-thiophen-2-yl)-acrylic acid]
12 | 1220 nM | 625 nM | Cc1sc2c(C)cccc2c1CCNc1cc(-c2ccc(C(=O)O)c(SC3COC3)c2)ncn1 [Example 131, 4-{6-[2-(2,7-Dimethyl-benzo[b]thiophen-3-yl)-ethylamino]-pyrimidin-4-yl}-2-(oxetan-3-ylsulfanyl)-benzoic acid]
13 | 114 nM | 27 nM | COc1cccc2c(CCNc3cc(-c4ccc(C(=O)O)c(SC)c4)ncn3)c(C#N)sc12 [Example 13, 4-{6-[2-(2-Cyano-7-methoxy-benzo[b]thiophen-3-yl)-ethylamino]-pyrimidin-4-yl}-2-methylsulfanyl-benzoic acid]
14 | 66 nM | 2990 nM | COc1cc(-c2cc(NCCc3c(C#N)sc4c(C)cc(F)cc34)ncn2)ccc1CC(=O)O [Example 168, (4-{6-[2-(2-Cyano-5-fluoro-7-methyl-benzo[b]thiophen-3-yl)-ethylamino]-pyrimidin-4-yl}-2-methoxy-phenyl)-acetic acid]
15 | 42 nM | 69 nM | CCOc1cc(-c2cc(NCCc3c(C)sc4c(C)cc(F)cc34)ncn2)sc1C(=O)NS(C)(=O)=O [Example 157, N-(3-Ethoxy-5-{6-[2-(5-fluoro-2,7-dimethyl-benzo[b]thiophen-3-yl)-ethylamino]-pyrimidin-4-yl}-thiophene-2-carbonyl)-methanesulfonamide]
16 | 19 nM | 13 nM | CCCc1cc(-c2cc(NCCc3c(C#N)sc4c(C)cc(F)cc34)ncn2)ccc1CC(=O)O [Example 170, (4-{6-[2-(2-Cyano-5-fluoro-7-methyl-benzo[b]thiophen-3-yl)-ethylamino]-pyrimidin-4-yl}-2-propyl-phenyl)-acetic acid]
17 | 83 nM | 136 nM | CCOc1cc(-c2cc(NCCc3c(C)sc4c(C)cccc34)ncn2)ccc1OCC(=O)O [Example 122, (4-{6-[2-(2,7-Dimethyl-benzo[b]thiophen-3-yl)-ethylamino]-pyrimidin-4-yl}-2-ethoxy-phenoxy)-acetic acid]
18 | 242 nM | 252 nM | CCCc1cc(-c2cc(NCCc3c(C)sc4c(C)cc(F)cc34)ncn2)ccc1CC(=O)O [Example 186, (4-{6-[2-(5-Fluoro-2,7-dimethyl-benzo[b]thiophen-3-yl)-ethylamino]-pyrimidin-4-yl}-2-propyl-phenyl)-acetic acid]
19 | 100 nM | 30 nM | CCCOc1cc(-c2cc(NCCc3c(C#N)sc4c(C)cc(F)cc34)ncn2)ccc1CC(=O)O [Example 169, (4-{6-[2-(2-Cyano-5-fluoro-7-methyl-benzo[b]thiophen-3-yl)-ethylamino]-pyrimidin-4-yl}-2-propoxy-phenyl)-acetic acid]

Row | Structure (SMILES) | IC50 (PTGER4 (EP4)) | IC50 (EP4 receptor)
20 | O=C(O)c1ccc(-c2cc(NCCc3csc4ccccc34)ncn2)cc1OC1CCC1 [Example 132, 4-[6-(2-Benzo[b]thiophen-3-yl-ethylamino)-pyrimidin-4-yl]-2-cyclobutoxy-benzoic acid] | 561 nM | 166 nM
21 | COc1cc(F)c(F)c2c(CCNc3cc(-c4cc(F)c(C(=O)O)c(OC5CCC5)c4)ncn3)c(C)oc12 [Example 150, 2-Cyclobutoxy-4-{6-[2-(4,5-difluoro-7-methoxy-2-methyl-benzofuran-3-yl)-ethylamino]-pyrimidin-4-yl}-6-fluoro-benzoic acid] | 363 nM | 450 nM
22 | COc1cc(Cl)cc2c(CCNc3cc(-c4cc(F)c(C(=O)O)c(OC5CCC5)c4)ncn3)c(C)oc12 [Example 151, 4-{6-[2-(5-Chloro-7-methoxy-2-methyl-benzofuran-3-yl)-ethylamino]-pyrimidin-4-yl}-2-cyclobutoxy-6-fluoro-benzoic acid] | 163 nM | 631 nM
